# Laboratory results taken from article PMC3961306, “Comparison of the Cancer Gene Targeting and Biochemical Selectivities of All Targeted Kinase Inhibitors Approved for Clinical Use” (PLoS ONE, 2014).
# What was measured:
# Experiment in all cases: Kinase profiling in a biochemical assay panel (mobility shift assays and ELISA), %-inhibition at 1 μM; selectivity entropy
# Details in all cases: 1 µM
# [1] = target: panel of more than 300 wild-type and mutant kinases (313 kinase panel) (Homo sapiens, UniProt Q9BYP7)
# panel of more than 300 wild-type and mutant kinases (313 kinase panel) (Homo sapiens, UniProt Q9BYP7), sequence (Q9BYP7 whole entry, change not shown): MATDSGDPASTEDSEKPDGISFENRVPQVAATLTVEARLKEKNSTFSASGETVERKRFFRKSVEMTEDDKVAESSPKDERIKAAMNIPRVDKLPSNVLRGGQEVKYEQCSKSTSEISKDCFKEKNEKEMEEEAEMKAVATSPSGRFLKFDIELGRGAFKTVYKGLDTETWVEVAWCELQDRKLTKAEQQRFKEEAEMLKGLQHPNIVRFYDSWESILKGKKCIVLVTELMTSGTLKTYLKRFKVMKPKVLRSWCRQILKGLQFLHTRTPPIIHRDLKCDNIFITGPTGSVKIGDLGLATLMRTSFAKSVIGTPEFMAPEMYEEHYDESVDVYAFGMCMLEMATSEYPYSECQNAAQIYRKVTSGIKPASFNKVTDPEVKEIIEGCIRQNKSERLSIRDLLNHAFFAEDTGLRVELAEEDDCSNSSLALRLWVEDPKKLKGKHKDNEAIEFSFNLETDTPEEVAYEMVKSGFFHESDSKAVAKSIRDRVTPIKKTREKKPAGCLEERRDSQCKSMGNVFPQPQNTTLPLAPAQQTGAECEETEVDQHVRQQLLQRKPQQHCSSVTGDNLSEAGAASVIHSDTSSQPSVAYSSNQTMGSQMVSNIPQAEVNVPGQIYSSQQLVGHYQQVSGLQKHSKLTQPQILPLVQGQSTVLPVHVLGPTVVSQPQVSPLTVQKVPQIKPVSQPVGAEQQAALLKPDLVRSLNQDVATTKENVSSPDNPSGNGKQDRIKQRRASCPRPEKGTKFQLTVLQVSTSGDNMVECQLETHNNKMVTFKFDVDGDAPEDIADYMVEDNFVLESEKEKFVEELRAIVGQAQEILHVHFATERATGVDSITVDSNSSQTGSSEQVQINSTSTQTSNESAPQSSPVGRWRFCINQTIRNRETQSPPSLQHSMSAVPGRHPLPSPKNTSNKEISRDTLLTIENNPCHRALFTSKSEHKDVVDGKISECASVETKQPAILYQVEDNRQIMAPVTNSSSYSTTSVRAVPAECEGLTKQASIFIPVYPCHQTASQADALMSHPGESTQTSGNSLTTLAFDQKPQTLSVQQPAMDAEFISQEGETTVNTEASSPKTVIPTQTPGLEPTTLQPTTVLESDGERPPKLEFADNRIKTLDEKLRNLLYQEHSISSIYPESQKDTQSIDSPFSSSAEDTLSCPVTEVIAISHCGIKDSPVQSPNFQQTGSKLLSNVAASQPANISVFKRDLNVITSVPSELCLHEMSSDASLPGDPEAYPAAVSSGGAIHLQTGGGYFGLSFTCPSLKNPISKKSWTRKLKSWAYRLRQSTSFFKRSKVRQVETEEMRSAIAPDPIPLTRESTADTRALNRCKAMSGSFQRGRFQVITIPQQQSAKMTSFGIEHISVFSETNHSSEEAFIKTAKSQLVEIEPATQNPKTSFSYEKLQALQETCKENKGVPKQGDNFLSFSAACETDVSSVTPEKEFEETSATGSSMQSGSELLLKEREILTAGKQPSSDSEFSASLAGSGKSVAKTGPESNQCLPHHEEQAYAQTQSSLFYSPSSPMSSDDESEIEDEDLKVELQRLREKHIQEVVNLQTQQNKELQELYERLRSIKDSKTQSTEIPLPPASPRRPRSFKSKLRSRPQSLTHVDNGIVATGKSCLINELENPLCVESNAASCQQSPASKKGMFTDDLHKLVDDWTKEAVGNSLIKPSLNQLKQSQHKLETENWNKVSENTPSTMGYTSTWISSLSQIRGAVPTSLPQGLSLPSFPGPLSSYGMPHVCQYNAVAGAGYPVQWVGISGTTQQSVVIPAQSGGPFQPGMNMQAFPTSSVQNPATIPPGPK
# [2] = target: T1, panel of more than 300 wild-type and mutant kinases (313 kinase panel) (Homo sapiens, UniProt P51813)
# T1 sequence (P51813 1-675): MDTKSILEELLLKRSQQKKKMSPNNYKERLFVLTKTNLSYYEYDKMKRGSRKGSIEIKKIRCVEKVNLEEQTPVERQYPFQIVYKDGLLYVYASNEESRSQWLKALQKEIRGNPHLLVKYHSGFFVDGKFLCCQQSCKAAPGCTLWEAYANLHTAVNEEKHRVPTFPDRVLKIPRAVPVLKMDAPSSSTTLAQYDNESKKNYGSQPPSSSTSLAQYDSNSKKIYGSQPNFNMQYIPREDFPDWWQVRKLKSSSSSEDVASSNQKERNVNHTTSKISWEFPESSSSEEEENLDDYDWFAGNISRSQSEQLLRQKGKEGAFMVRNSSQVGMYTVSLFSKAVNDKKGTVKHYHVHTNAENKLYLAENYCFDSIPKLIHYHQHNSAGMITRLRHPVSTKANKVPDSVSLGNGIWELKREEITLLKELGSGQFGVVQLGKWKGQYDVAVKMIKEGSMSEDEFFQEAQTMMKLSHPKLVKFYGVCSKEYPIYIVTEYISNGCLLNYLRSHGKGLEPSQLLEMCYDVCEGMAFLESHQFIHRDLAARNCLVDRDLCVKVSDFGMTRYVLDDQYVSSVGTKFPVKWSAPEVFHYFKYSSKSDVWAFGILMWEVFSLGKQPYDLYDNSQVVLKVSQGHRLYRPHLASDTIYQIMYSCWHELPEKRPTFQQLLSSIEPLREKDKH
# [3] = target: T2, panel of more than 300 wild-type and mutant kinases (313 kinase panel) (Homo sapiens, UniProt Q9UQB9)
# T2 sequence (Q9UQB9 1-309): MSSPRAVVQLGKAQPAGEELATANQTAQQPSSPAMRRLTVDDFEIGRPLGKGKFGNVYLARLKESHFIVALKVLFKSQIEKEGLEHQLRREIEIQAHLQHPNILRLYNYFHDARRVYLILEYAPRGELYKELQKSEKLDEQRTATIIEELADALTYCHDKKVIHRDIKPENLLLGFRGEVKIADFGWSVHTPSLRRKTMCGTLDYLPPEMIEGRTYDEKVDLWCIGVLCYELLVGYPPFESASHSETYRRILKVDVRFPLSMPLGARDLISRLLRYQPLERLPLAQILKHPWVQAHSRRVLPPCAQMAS
# [4] = target: T3, panel of more than 300 wild-type and mutant kinases (313 kinase panel) (Homo sapiens, UniProt P41743)
# T3 sequence (P41743 1-596): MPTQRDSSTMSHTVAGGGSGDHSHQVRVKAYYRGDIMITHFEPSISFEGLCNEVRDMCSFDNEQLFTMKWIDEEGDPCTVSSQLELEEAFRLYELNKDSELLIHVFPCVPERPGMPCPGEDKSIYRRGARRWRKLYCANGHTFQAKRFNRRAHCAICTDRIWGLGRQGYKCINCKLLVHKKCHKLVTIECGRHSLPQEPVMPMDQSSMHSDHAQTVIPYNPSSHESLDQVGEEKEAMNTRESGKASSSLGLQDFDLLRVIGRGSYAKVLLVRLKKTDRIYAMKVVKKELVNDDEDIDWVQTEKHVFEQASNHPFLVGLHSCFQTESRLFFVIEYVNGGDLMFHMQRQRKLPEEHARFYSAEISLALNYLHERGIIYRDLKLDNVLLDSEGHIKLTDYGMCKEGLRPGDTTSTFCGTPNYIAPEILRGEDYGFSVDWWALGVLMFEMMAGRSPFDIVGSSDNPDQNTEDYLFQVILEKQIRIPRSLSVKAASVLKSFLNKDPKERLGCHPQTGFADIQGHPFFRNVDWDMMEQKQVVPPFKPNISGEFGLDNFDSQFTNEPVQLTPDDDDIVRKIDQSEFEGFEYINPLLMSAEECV
# [5] = target: panel of more than 300 wild-type and mutant kinases (313 kinase panel) (Homo sapiens, UniProt P49137)
# panel of more than 300 wild-type and mutant kinases (313 kinase panel) (Homo sapiens, UniProt P49137), sequence (P49137 whole entry, change not shown): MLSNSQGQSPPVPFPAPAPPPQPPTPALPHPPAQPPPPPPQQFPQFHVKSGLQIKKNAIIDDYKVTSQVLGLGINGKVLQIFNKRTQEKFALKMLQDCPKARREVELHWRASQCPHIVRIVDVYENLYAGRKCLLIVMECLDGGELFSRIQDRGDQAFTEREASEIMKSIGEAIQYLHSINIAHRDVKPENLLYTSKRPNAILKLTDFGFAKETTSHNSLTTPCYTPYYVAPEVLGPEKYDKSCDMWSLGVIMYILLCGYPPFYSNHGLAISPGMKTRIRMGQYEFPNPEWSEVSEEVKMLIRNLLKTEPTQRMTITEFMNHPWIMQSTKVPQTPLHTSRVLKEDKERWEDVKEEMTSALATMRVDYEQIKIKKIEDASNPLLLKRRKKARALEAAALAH
# [6] = target: panel of more than 300 wild-type and mutant kinases (313 kinase panel) (Homo sapiens, UniProt Q13153)
# [7] = target: panel of more than 300 wild-type and mutant kinases (313 kinase panel) (Homo sapiens, UniProt P29317)
# [8] = target: panel of more than 300 wild-type and mutant kinases (313 kinase panel) (Homo sapiens, UniProt O00311)
smiles,measurement,setting,value
C#Cc1cccc(Nc2ncnc3cc(OCCOC)c(OCCOC)cc23)c1 [erlotinib],%-inhibition of WNK3,[1],0.315%
same,"%-inhibition, BMX",[2],17%
same,"%-inhibition, AurC",[3],24%
same,%-inhibition of PKCι,[4],9%
same,%-inhibition of MAPKAPK2,[5],4.42%
same,%-inhibition of PAK1,[6],6.37%
same,%-inhibition of EPHA2,[7],18%
same,"%-inhibition, CDC7/ASK",[8],0.905%
